Marks after values point to notes of the source that are not given here.
Legend:
[1] = tested on: GTP-bound RhoA; test: GTP-associated active RhoA in Caco-2 membrane fraction (western blot); assay type: cell-based
Procedure: To measure the GTP-associated active RhoA, the following cell lines were used: Caco-2, ECV304 and HpMec. All cells were grown at standard conditions (37° C., 5% CO2 and 95% rH). 4 h before the experiment, cells were starved by serum withdrawal. To induce GEF-activity, cells were stimulated with thrombin, LPS or PMA for the indicated time in presence or absence of 50 μg/ml XIB1-a or XIB1-b. After stimulation, membrane fractions were prepared by using the commercial available “Compartemental Protein Extraction Kit” from Biochain Institutes. Membrane fractions were prepared according to the manufacturer instructions. The membrane fraction was separated on 15% polyacrylamide gel according to standard procedures of gel electrophoresis. The gels were afterwards blotted on a nitrocellulose membrane according to standard procedures of western blotting. GTP-bound RhoA was detected using RhoA-GTP monoclonal antibody from NewEast Inc. in a dilution of 1:5000. Protein bands were analyzed with the Dolphin-1D Gel analysis system (Wealtec).

[2] = tested on: LPS induced lung injury; test: LPS induced lung injury, bronchoalveolar lavage; assay type: in vivo; conditions: mice; for effect on barrier function in the LPS-inhalation model (neutrophils and albumin in BALF): equal in groups treated intraperitoneally and intratracheally; for counts of neutrophils in the BALF (mean +/ SD) / albumine content of BALFs (mean +/ SD): n = 20
Procedure: Male C57Bl/6 Mice (Charles River, Germany) were kept at the animal facility of the Medical University of Vienna, feed with standard diet and water was provided ad libitum. All interventions were performed according to the guide lines of AAALAC (Association for Assessment and Accreditation of Laboratory Animal Care). All experiment were approved by the Ethic committee of the Medical University of Vienna. Mice were anesthetized with isoflouran and treated with 100 ng of LPS (E. coli O55:B5, Sigma Aldrich) intranasally. XIB1-a or XIB1-b was applied either intra-peritoneally (2×2 mg/kg) or via inhalation (2×4 mg/kg), first application was performed concomitantly with LPS administration, the second application was performed 1 h after the LPS inhalation.
The trachea was exposed through a midline incision and canulated with a sterile 20-gauge catheter (BD Venflon™, Becton Dickinson Infusion Therapy, Helsingborg, Sweden). Bilateral broncho-alveolar lavage fluid (BALF) was gained by instilling two 0.5 ml aliquots of sterile saline. Approximately 0.9-1 ml BALF was retrieved per mouse. Total cell numbers were counted from each sample using a hemo-cytometer (Türck chamber), BALF differential cell counts were done on cytospin preparations stained with Giemsa. For protein measurements, BALF was diluted 1:2 in buffer containing 300 mM NaCl, 30 mM Tris, 2 mM MgCl2, 2 mM CaCl2, and Pepstatin A, Leupeptin and Aprotinin (all 20 ng/ml; pH 7.4). Protein levels in BALF were measured using the BCA protein kit according to the manufacturer's instructions (Pierce, Rockford, Ill.).
In addition, the same set-up as described above was used for comparing the impact of XIB1-b compared to Bβ15-42 (PLoS ONE (2009), 4(4): e5391), a peptide derived from fibrin having the sequence […] (SEQ ID NO: 41). Bβ15-42 was added in the same manner as XIB1-b. Again, protein content and cell count of BALF was measured.

[3] = tested on: Phosphorylated Myosin Light Chain (MLC) and actin stress fibers; test: MLC phosphorylation and actin stress fiber formation in Caco-2 cells (microscopy score); assay type: cell-based
Procedure: To measure MLC phosphorylation and actin stress fiber formation, the following cell lines were used: Caco-2, ECV304 and HpMec. All cells were grown at standard conditions (37° C., 5% CO2 and 95% rH). Culture Medium used: for Caco-2: DMEM+1 mM sodium pyruvate+20% FCS+1% Penicillin Streptomycin; for ECV 304: RPMI 1640+10% FCS+1% Penicillin Streptomycin; and for HpMec: IMDM+25 mM Hepes+10% Human Serum+1% Penicillin Streptomycin+1% L-Glutamine+ECGS/Heparin 2 ml. 4 h before the experiment, cells were starved by serum withdrawal. To induce GEF-activity, cells were stimulated with thrombin, LPS or PMA for the indicated time in presence or absence of 50 μg/ml XIB1-a or XIB1-b. After stimulation, cells were fixed using 4% PFA. Phospho MLC was detected by using the “rabbit anti phosphor-myosin light chain antibody” from Chemicon in a concentration of 3 μl/ml in PBS (Gibco) supplemented with 0.1% Triton X-100. As detection antibody, the Alexa 448 tagged “anti Rabbit IgG Antibody” from Invitrogen was used in a concentration of 0.5 μl/ml in PBS (Gibco) supplemented with 0.1% Triton X-100. Aktin was detected using TRITC-labeled Phalloidin in a concentration of 0.5 μl/ml in PBS (Gibco) supplemented with 0.1% Triton. Stained cells were analyzed by using a Zeiss Laser Scan microscope. Evaluation of the cyto-skeletal activation was performed by 2 independent observers that were blinded to the conditions. Evaluation criteria were set as follows:
Actin: parallel actin bundles absent=0; distinct bundle formation=1; prominent parallel bundles=2; Phospho-MLC: present at cell poles=0; slight co-localization with actin bundles=1; prominent co-localization with actin bundles=2

[4] = CaCo-2, PMA 1 μg/ml, 1 min, with or without peptide 50 μg/ml
[5] = CaCo-2, PMA 1 μg/ml, 5 min, with or without peptide 50 μg/ml
[6] = CaCo-2, no stimulus, 1 min, peptide 50 μg/ml
[7] = CaCo-2, no stimulus, 5 min, peptide 50 μg/ml
[8] = 6 h after LPS administration, intraperitoneal application (2×2 mg/kg)
[9] = 6 h after LPS administration, intratracheal application

Row | Sequence | GTP-bound RhoA, relative values compared to unstimulated control (Mean) [1, 4] | GTP-bound RhoA, relative values compared to unstimulated control (Mean) [1, 5] | GTP-bound RhoA, relative values compared to unstimulated control (Mean) [1, 6] | GTP-bound RhoA, relative values compared to unstimulated control (Mean) [1, 7] | effect on barrier function in the LPS-inhalation model (neutrophils and albumin in BALF) [2] | MLC phosphorylation and actin stress fiber formation, evaluation score (Mean) [3, 4] | MLC phosphorylation and actin stress fiber formation, evaluation score (Mean) [3, 5] | MLC phosphorylation and actin stress fiber formation, evaluation score (Mean) [3, 6] | MLC phosphorylation and actin stress fiber formation, evaluation score (Mean) [3, 7] | counts of neutrophils in the BALF (mean +/ SD) ([2]; comparison with Bβ15-42 (Table 6), 6 h after LPS, intratracheal plus intraperitoneal application) | albumine content of BALFs (mean +/ SD) [2, 8] [µg/mL] | counts of neutrophils in the BALF (mean +/ SD) [2, 8] | albumine content of BALFs (mean +/ SD) [2, 9] [µg/mL] | counts of neutrophils in the BALF (mean +/ SD) [2, 9]
1 | GRRPGGASGG (/note=“Description of artificial sequence cingulin-derived peptide XIB1-a”) | 1.4* | 1.3* | 1 | 1 | beneficial effect | 1* | 2* | 0 | 0 |  |  |  |  | 
2 | GRRPLGGISGG (/note=“Description of artificial sequence cingulin-derived peptide XIB1-b”) | 1.4* | 1.3* | 1 | 1 | beneficial effect | 1* | 2* | 0 | 0 | 15 +/− 15 neutrophils/ml (× 10^3) | 120 ± 12 | 25 +/− 22 neutrophils/ml (× 10^3) | 98 ± 20 | 28 +/− 23 neutrophils/ml (× 10^3)

— patent US9012403B2, “Peptides as active agents to stabilize biological barriers” (XiberScience GmbH, priority 2010, dated 2015)
